The conditions of data set [1]: local anaesthetic; cited from earlier work.
A short description of data set [2]: Directional release from hydrogel coated with PCL on one side, in 3% alginate gel. The format is physicochemical. The method, then: Release of methylene blue from the hydrogel was simulated in a 3% alginate gel, cross-linked with calcium chloride to obtain a tissue-like consistency. Only the top part of the hydrogel was coated with PCL. The samples were inspected at 0, 1, 2, and 3 hours. Hydrogels were positioned vertically to eliminate any effect of gravity on the direction of release. […] The same experiment was performed with bupivacaine.

Bounds are passed on as bounds.

The values that follow come from patent US12370265B2, “Hydrogel for in-vivo release of medication” (UMC Utrecht Holding B.V., priority 2019, dated 2025).

`CCCCN1CCCCC1C(=O)Nc1c(C)cccc1C` (stereo not drawn) [bupivacaine]: the “duration of its effect” value in data set [1] was “approx. 8 hours”. For the same compound, the cumulative release entry in data set [2] (from the PCL-covered direction, after 8 hours) is reported as “about 2 mg”. For the same compound, the “time to reach cumulative release of about 2 mg” value in data set [2] (non-PCL covered direction) was at most 1 h.
